Results taken from US9938264B2, “Proteolysis targeting chimera compounds and methods of preparing and using same” (YALE UNIVERSITY, priority 2015, dated 2018).

What was measured:
BCR-ABL = target: T1, BCR-ABL (Homo sapiens, UniProt P00519+P11274); assay: BCR-ABL degradation in K562 cells by immunoblot; type: cell-based
T1 construct: endogenous in cells; host or cells: K562 (ATCC)
Protocol: (§1) K562 cells were obtained from ATCC and were grown at 37° C., 5% CO2 in Iscove's Modified Dulbecco's Media (IMDM) supplemented with 10% FBS, 100 U/mL penicillin and 100 μg/mL streptomycin. HEK293 and SK-BR-3 cells were obtained from ATCC and were grown at 37° C., 5% CO2 in Dulbecco's Modified Eagle's Media (DMEM) supplemented with 10% FBS, 100 U/mL penicillin and 100 μg/mL streptomycin.
(§2) K562 cells (1-1.5×10^6) were treated for 24 hours with the indicated compounds solubilized in DMSO. The cells were collected at 300 g for 3 min. […] The total protein concentrations were determined by Pierce BCA Protein Assay and […] of protein was loaded onto 10% Tris-Glycine gels. After standard gel electrophoresis, the separated proteins were transferred to nitrocellulose by wet transfer. The immunoblots were then processed by standard procedures and incubated with the respective antibodies. Band intensities were quantified by Bio-Rad's Image Lab software.

c-ABL = target: T2, c-ABL (Homo sapiens, UniProt P00519); assay: c-ABL degradation in K562 cells by immunoblot; type: cell-based; details: for decrease (degradation) of c-ABL: at 1 μM PROTAC; for concentration from which degradation of c-ABL is observed: 24 hrs, immunoblot
T2 construct: endogenous in cells; host or cells: K562 (ATCC)
Protocol: as §1, §2

[1] = target: T3, non-phosphorylated c-ABL kinase domain (Homo sapiens, UniProt P00519); assay: KinomeScan in vitro binding affinity (Kd), non-phosphorylated c-ABL kinase domain; details: Table 2, read-out: ABL (non-phosphorylated)
T3 construct: phosphorylated and non-phosphorylated c-ABL kinase domain; purchased DiscoverRx Corporation (KinomeScan platform)
T3 sequence (P00519 242-493 limits assumed): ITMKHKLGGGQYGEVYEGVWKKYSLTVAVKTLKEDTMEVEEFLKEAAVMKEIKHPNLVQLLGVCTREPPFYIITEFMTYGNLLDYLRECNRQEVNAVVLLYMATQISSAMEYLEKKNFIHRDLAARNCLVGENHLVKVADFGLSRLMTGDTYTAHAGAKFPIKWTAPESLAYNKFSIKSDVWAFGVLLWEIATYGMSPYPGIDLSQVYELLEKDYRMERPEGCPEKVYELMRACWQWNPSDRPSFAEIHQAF
Protocol: (§3) PROTAC in vitro binding affinities (Kd) to phosphorylated and non-phosphorylated c-ABL kinase domain were determined using the KinomeScan platform (DiscoverRx Corporation). The compounds were solubilized in DMSO and sent to DiscoverRx Corporation as a 10 μM stock solution.

[2] = target: T4, phosphorylated c-ABL kinase domain (Homo sapiens, UniProt P00519); assay: KinomeScan in vitro binding affinity (Kd), phosphorylated c-ABL kinase domain; details: Table 2, read-out: ABL (phosphorylated)
T4 construct: phosphorylated and non-phosphorylated c-ABL kinase domain; purchased DiscoverRx Corporation (KinomeScan platform)
T4 sequence (P00519 242-493 limits assumed): T3 sequence (P00519 242-493 limits assumed)
Protocol: as §3

T2 sequence (P00519 whole entry): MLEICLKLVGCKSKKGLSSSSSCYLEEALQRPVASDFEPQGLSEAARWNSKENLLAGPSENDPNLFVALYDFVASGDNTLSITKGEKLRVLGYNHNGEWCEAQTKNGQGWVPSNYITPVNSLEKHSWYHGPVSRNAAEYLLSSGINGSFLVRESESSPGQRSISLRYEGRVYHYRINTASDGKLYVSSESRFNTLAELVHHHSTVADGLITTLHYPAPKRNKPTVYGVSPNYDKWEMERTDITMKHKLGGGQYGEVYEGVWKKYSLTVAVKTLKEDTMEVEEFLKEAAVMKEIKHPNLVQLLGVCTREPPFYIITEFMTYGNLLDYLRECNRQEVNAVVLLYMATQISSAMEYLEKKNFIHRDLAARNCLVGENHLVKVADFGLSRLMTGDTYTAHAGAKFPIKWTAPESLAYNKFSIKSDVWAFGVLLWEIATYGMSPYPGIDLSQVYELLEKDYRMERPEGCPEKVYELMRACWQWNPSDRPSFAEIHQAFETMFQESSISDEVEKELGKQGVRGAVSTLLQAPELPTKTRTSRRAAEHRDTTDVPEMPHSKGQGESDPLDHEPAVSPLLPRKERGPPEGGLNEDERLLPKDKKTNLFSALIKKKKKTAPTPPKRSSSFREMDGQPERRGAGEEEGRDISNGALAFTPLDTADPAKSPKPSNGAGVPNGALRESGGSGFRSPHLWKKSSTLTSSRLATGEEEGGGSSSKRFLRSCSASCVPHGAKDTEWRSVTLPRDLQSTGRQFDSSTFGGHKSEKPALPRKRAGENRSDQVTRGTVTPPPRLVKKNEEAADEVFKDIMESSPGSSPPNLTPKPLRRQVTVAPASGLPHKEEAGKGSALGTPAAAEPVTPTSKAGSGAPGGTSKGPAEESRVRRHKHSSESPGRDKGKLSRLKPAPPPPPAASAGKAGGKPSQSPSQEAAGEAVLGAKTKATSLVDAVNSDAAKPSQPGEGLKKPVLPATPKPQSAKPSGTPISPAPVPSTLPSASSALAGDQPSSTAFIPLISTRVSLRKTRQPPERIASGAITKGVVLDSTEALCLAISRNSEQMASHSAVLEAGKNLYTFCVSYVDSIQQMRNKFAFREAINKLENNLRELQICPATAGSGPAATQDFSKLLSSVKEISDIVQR
T1 sequence (P11274+P00519 fused, change not shown): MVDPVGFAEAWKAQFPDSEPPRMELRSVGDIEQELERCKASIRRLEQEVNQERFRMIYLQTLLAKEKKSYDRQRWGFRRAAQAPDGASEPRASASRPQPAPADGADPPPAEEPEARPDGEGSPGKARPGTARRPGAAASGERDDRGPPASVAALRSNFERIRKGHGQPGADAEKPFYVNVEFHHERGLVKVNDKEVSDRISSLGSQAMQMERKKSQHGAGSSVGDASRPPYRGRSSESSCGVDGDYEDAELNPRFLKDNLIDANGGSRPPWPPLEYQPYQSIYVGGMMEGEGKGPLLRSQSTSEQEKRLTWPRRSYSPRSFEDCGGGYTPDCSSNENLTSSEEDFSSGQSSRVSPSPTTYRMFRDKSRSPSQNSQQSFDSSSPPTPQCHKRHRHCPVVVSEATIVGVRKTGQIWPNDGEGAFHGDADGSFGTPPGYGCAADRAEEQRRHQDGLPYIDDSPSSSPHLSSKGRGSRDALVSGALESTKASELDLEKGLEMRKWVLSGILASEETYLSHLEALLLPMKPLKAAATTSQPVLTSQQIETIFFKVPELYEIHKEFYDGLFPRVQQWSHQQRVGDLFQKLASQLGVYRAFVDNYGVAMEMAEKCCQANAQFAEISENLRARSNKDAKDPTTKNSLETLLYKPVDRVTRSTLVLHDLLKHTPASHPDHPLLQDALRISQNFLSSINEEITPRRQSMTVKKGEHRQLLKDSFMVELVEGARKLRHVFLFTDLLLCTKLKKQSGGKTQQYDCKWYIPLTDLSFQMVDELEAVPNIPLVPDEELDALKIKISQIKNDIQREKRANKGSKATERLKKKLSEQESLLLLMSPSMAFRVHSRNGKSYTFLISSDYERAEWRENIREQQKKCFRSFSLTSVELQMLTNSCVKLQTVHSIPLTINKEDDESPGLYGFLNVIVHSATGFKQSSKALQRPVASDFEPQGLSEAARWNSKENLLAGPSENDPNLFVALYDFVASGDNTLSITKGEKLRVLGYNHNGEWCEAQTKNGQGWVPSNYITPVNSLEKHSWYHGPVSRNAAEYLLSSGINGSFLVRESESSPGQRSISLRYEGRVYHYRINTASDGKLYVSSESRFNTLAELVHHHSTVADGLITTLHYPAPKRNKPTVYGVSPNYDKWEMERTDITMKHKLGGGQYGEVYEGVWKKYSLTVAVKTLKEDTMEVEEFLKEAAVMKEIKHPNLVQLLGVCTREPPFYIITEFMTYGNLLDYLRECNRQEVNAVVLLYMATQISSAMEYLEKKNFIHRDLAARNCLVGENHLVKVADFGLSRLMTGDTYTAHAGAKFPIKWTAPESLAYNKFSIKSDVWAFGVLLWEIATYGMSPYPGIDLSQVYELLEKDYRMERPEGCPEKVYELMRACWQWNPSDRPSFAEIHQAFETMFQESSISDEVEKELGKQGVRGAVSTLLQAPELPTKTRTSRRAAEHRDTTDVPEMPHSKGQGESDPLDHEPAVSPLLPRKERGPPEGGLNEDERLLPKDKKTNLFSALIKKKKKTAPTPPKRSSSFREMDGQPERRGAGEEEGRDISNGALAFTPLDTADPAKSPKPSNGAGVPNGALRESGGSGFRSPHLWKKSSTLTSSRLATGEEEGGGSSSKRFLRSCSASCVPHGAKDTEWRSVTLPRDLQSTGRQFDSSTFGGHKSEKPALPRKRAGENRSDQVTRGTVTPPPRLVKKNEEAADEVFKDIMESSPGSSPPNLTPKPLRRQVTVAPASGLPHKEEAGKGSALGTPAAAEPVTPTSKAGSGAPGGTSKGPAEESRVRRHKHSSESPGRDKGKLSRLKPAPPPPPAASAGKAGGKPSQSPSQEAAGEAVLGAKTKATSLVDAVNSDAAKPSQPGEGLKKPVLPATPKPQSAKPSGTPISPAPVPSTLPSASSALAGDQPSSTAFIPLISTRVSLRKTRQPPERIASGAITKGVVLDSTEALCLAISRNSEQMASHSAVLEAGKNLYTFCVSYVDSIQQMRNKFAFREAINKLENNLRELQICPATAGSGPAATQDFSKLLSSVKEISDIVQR
T1 sequence (Q96SW2 whole entry, change not shown, further chain): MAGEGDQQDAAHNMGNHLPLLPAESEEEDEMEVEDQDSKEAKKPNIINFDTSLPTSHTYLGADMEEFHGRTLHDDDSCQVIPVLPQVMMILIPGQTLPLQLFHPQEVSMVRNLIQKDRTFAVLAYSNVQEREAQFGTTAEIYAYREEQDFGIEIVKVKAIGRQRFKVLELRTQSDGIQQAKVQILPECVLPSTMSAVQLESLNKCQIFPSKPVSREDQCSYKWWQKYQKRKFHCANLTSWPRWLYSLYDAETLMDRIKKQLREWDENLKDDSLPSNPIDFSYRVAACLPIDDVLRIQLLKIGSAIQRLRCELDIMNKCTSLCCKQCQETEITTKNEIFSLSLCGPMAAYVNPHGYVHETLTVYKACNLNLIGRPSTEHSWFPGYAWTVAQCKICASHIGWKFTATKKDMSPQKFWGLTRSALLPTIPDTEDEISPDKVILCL
T1 sequence (Q16531 whole entry partner): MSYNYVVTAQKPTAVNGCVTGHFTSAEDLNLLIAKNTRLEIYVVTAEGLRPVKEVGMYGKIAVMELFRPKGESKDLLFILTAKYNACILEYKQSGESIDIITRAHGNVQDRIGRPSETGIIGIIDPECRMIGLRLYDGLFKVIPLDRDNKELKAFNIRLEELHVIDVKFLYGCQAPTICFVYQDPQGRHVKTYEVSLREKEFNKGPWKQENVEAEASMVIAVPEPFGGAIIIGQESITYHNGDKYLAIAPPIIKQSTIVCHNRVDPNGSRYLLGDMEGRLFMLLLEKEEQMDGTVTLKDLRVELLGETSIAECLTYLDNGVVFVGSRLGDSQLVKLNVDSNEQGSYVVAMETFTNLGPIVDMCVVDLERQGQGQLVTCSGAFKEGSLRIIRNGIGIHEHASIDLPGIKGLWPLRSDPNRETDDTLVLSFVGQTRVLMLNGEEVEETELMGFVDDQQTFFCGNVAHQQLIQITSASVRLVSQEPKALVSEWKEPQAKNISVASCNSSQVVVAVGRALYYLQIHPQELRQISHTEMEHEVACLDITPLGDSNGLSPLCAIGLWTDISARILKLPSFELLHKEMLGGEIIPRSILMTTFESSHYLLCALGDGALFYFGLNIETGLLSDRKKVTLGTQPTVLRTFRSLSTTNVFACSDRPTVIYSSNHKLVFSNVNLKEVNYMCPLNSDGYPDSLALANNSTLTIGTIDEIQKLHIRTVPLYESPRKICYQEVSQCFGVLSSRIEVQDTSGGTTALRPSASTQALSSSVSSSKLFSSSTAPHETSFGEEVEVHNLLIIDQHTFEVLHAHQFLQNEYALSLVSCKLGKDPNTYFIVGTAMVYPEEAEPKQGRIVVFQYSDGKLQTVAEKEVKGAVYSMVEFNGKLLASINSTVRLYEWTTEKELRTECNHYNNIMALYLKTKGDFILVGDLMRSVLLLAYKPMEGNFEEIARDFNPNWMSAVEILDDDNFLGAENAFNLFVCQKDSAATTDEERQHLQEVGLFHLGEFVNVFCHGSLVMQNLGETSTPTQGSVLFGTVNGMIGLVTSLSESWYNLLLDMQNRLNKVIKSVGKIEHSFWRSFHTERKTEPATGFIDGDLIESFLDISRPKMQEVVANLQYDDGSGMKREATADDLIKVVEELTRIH

| Compound | decrease (degradation) of c-ABL (c-ABL) [%] | Kd [1] [nM] | Kd [2] [nM] | concentration from which degradation of c-ABL is observed (c-ABL) [µM] | further results |
| --- | --- | --- | --- | --- | --- |
| 6-(2-(2-((6-(4-(3-((3-cyano-4-((2,4-dichloro-5-methoxyphenyl)amino)-6-methoxyquinolin-7-yl)oxy)propyl)piperazin-1-yl)hexyl)oxy)ethoxy)ethoxy)-N-(2-(2,6-dioxopiperidin-3-yl)-1,3-dioxoisoindolin-4-yl)hexanamide [BOS-6-2-2-6-CRBN] | – | – | – | – | BCR-ABL degradation (BCR-ABL; at 2.5 μM): > 80%; c-ABL degradation (c-ABL; at 2.5 μM): > 90% |
| Cc1nc(Nc2ncc(C(=O)Nc3c(C)cccc3Cl)s2)cc(N2CCN(CCCCCCOCCOCCOCCCCCC(=O)Nc3cccc4c3C(=O)N(C3CCC(=O)NC3=O)C4=O)CC2)n1 (centres unmarked) [DAS-6-2-2-6-CRBN, N-(2-chloro-6-methylphenyl)-2-((6-(4-(6-(2-(2-((6-((2-(2,6-dioxopiperidin-3-yl)-1,3-dioxoisoindolin-4-yl)amino)-6-oxohexyl)oxy)ethoxy)ethoxy)hexyl)piperazin-1-yl)-2-methylpyrimidin-4-yl)amino)thiazole-5-carboxamide] | > 85 | 0.6 | – | – | BCR-ABL degradation (BCR-ABL; at 1 μM PROTAC): > 60% |
| Cc1nc(Nc2ncc(C(=O)Nc3c(C)cccc3Cl)s2)cc(N2CCN(CCCCCCOCCOCCOCCCCCC(=O)N[C@H](C(=O)N3C[C@H](O)C[C@H]3C(=O)NCc3ccc(-c4scnc4C)cc3)C(C)(C)C)CC2)n1 [DAS-6-2-2-6-VHL, N-(2-chloro-6-methylphenyl)-2-((6-(4-((S)-3-((2S,4R)-4-hydroxy-2-((4-(4-methylthiazol-5-yl)benzyl)carbamoyl)pyrrolidine-1-carbonyl)-2,2-dimethyl-5-oxo-11,14,17-trioxa-4-azatricosan-23-yl)piperazin-1-yl)-2-methylpyrimidin-4-yl)amino)thiazole-5-carboxamide] | > 65 | 0.92 | 0.47 | ≥ 1 | – |
| Cc1nc(Nc2ncc(C(=O)Nc3c(C)cccc3Cl)s2)cc(N2CCN(CCCCCCOCCOCC(=O)N[C@H](C(=O)N3C[C@H](O)C[C@H]3C(=O)NCc3ccc(-c4scnc4C)cc3)C(C)(C)C)CC2)n1 [DAS-6-2-2-VHL, N-(2-chloro-6-methylphenyl)-2-((6-(4-(6-(2-(2-(((S)-1-((2S,4R)-4-hydroxy-2-((4-(4-methylthiazol-5-yl)benzyl)carbamoyl)pyrrolidin-1-yl)-3,3-dimethyl-1-oxobutan-2-yl)amino)-2-oxoethoxy)ethoxy)hexyl)piperazin-1-yl)-2-methylpyrimidin-4-yl)amino)thiazole-5-carboxamide] | – | – | – | ≥ 1 | – |
| Cc1nc(Nc2ncc(C(=O)Nc3c(C)cccc3Cl)s2)cc(N2CCN(CCCCCCOCCCCCOCCCCCC(=O)N[C@H](C(=O)N3C[C@H](O)C[C@H]3C(=O)NCc3ccc(-c4scnc4C)cc3)C(C)(C)C)CC2)n1 [DAS-6-5-6-VHL, N-(2-chloro-6-methylphenyl)-2-((6-(4-(6-((5-((6-(((S)-1-((2S,4R)-4-hydroxy-2-((4-(4-methylthiazol-5-yl)benzyl)carbamoyl)pyrrolidin-1-yl)-3,3-dimethyl-1-oxobutan-2-yl)amino)-6-oxohexyl)oxy)pentyl)oxy)hexyl)piperazin-1-yl)-2-methylpyrimidin-4-yl)amino)thiazole-5-carboxamide] | – | 2.6 | 1.3 | ≥ 1 | – |
| Cc1nc(Nc2ncc(C(=O)Nc3c(C)cccc3Cl)s2)cc(N2CCN(CCCCCCOCCOCCOCCOCCOCCOCC(=O)N[C@H](C(=O)N3C[C@H](O)C[C@H]3C(=O)NCc3ccc(-c4scnc4C)cc3)C(C)(C)C)CC2)n1 [DAS-6-(2-)5-2-VHL, N-(2-chloro-6-methylphenyl)-2-((6-(4-((S)-3-((2S,4R)-4-hydroxy-2-((4-(4-methylthiazol-5-yl)benzyl)carbamoyl)pyrrolidine-1-carbonyl)-2,2-dimethyl-5-oxo-7,10,13,16,19,22-hexaoxa-4-azaoctacosan-28-yl)piperazin-1-yl)-2-methylpyrimidin-4-yl)amino)thiazole-5-carboxamide] | – | – | – | ≥ 1 | – |
